Like-named read-outs stand apart in the source and are kept apart here.
Experiments:
[1] = tested on: β-Pix MO-induced hemorrhage in zebrafish; assay: βPix morpholino-induced hemorrhage in zebrafish, rescue by drugs; format: in vivo, zebrafish (Danio rerio)
Protocol: Morpholino oligonucleotides (MOs) were custom-synthesized by Gene Tools (Carvalis, Oreg.); their sequences are shown in Table 1.
(§1) Danieau buffer (58 mM NaCl, 0.7 mM KCl, 0.4 mM MgSO4, 0.6 mM Ca(NO3)2, 5.0 mM HEPES, pH 7.6) was used to dilute the MO solutions to 0.2 mM final concentration. Individual wells were placed on a 1.0% agarose plate, in which the embryos were positioned. Afterwards, the MO solution was injected through the cell yolk into embryos of 1 to 4 cell-stage. The injected quantities varied from 0.5 to 15 ng.
bbhm292 zebrafish mutant has a hypomorphic mutation in βPix, resulting in ICH/BMH and hydrocephalus. The MO is βPixexon6-MO which blocks splicing of exon 6 and results in premature protein termination. […] Higher doses of βPixexon6-MO (up to 8 ng) result in a lack of blood circulation, and therefore no ICH/BMH was detected. Injection of 8 ng results in complete missplicing of βPix and therefore a null phenotype, whereas lower doses retain some normally spliced βPix. The βPixexon6-MO sequence is 5′-[…]-3′ [SEQ ID NO: 1]. 3Pixexon6-MO was injected into the embryos at the 1-2 cell stage, and compounds were added 12 hpf.
(§2) The first three morpholino pairs were good for the efficacy study. Efficacy assays were performed using Artemether (ARM, Sigma) and artemesunate (ART, GMP). […] Treating these morphants with the drugs rescued the ICH phenotype.

[2] = tested on: Pak2a - exon8 morpholino-induced hemorrhage in zebrafish; assay: Pak2a morpholino-induced hemorrhage in zebrafish, rescue by drugs; format: in vivo, zebrafish (Danio rerio); settings: Danio rerio; Table 6
Protocol: as §1
Another MO was designed to block the splice-donor sites after exon 8 in pak2a. Pak2a is the gene mutated in the rhdmi149 zebrafish mutant that develops ICH/BMH.
Efficacy assays were performed using Artemether (ARM, Sigma) and artemesunate (ART, GMP).

[3] = tested on: Hmgcrb - splice morpholino-induced hemorrhage in zebrafish; assay: Hmgcrb morpholino-induced hemorrhage in zebrafish, rescue by drugs; format: in vivo, zebrafish (Danio rerio); settings: Danio rerio; Table 6
Protocol: as §1, §2

zebrafish larvae = assay: Toxicity assay in zebrafish larvae (heart beat, blood flow, cardiac edema); format: in vivo, zebrafish (Danio rerio)
Protocol: The embryos were collected and distributed into a 96-well plate in 0.5% DMSO, similar to efficacy assays. […] Heart beat and blood flow were ranked from 3 (normal heart beat or blood flow) to 0 (no heart beat or blood flow). Cardiac edema was ranked from 0 (normal heart without edema) to −3 (severe cardiac edema). […] The ratio of TC50/EC50 was calculated in each case.
Heart beat and blood flow were ranked from 3 (normal heart beat or blood flow) to 0 (no heart beat or blood flow). Cardiac edema was ranked from 0 (normal heart without edema) to −3 (severe cardiac edema). […] Data is expressed as mean±SEM from 3 experiments.

VE-Cadherin (Cdh5) mRNA = assay: qRT-PCR of VE-cadherin mRNA in atorvastatin-treated zebrafish larvae; format: in vivo, zebrafish (Danio rerio); settings: 1 μmol/L atorvastatin plus 500 nmol/L drug, n=3
Protocol: (§3) qRT-PCR was used to assess relative expression of selected genes (an average of two biological trial and three technical replicates and each trial is a pool of 60 larvae/treatment), using β-actin as the housekeeping gene control. 3 dpf, Tg(Flk:GFP; Gata:dsRed) zebrafish larvae were used for RNA extraction and cDNA synthesis. Atorvastatin and drug treatment were performed as previously mentioned in drug screening. Total RNA was extracted from these larvae (a pool of 50-60 larvae/treatment) using the RNeasy extraction kit (Qiagen, Mississauga, ON, CAN) and treated with DNase. The concentration of total RNA was determined spectrophotometrically at 260/280 nm using a NanoDrop™ spectrophotometer. First-strand cDNA was synthesized from 1 μg of total RNA using random hexamer primers.
(§4) In each case, forward primer is shown on the top and reverse primer on the bottom.
(§5) PCR was carried out in a 20 μl total volume and included 1×PCR buffer, 1.25 mM MgCl2, 0.25 mM dNTP, 1 U Taq polymerase, 0.5 μmol/L forward, and reverse primers and 1 μl cDNA.

Integrin β3 (Itgb3) mRNA = assay: qRT-PCR of integrin β3 mRNA in atorvastatin-treated zebrafish larvae; format: in vivo, zebrafish (Danio rerio); settings: 1 μmol/L atorvastatin plus 500 nmol/L drug, n=3
Protocol: as §3, §4, §5

CCM3 (Ccm3) mRNA = assay: qRT-PCR of CCM3 mRNA in atorvastatin-treated zebrafish larvae; format: in vivo, zebrafish (Danio rerio); settings: 1 μmol/L atorvastatin plus 500 nmol/L drug, n=3
Protocol: as §3, §4, §5

[4] = tested on: brain hemorrhage induced by 1 μM atorvastatin in zebrafish; assay: Atorvastatin-induced brain hemorrhage (ICH) model in zebrafish, rescue by drugs; settings: for EC50: Danio rerio
Protocol: Zebrafish were set up the night before the experiment day. In the morning of the experimental day, we put breeders together for mating and fertilization. 6 hours post-fertilization (hpf), statins was added into a 96-well plate holding 100 μl water with 7 to 8 fish eggs in each well, which was optimized through a serial pilot experiments. Statins were dissolved in DMSO and diluted with 0.5% of DMSO water into a working solution. 100 μl water containing 0.5% of DMSO was the medium for all wells in the final assessment.
For screening NIH compound libraries, 5 μM of each of the drugs from the library was added at 24 hpf into wells containing fish eggs treated with 1 μM ATV since 6 hpf. Hemorrhage positive control wells were treated with ATV but not treated with any drugs. Negative controls were not treated with any chemicals (fish with 0.5% of DMSO water). Geranylgeranyl pyrophosphate (GGPP, 4 mg/L) was used as positive rescue control.
Brain hemorrhage was assessed 72 hpf (66 hours after addition of statins) using stereomicroscopy by two observers. Percentage of brain hemorrhage was used as final readout. Compounds showing more than 70% of rescue of the brain hemorrhages in the initial test were re-tested to generate a final list of hits from the library.
All subsequent EC50 assays of positive compounds were performed with protocols established and optimized during the screening.

[5] = drug from Sequoia Research (UK)
[6] = drug from Sigma, 3 dpf larvae, drug added 24 hpf

For `CO[C@H]1O[C@@H]2O[C@@]3(C)CC[C@H]4[C@H](C)CC[C@@H]([C@H]1C)[C@@]24OO3` [Artemether], the EC50 ([1]; Danio rerio, Table 6, read-out: EC50 to rescue hemorrhage induced by βPix - exon6 morpholino) was 51.6 ± 11.7 nM, the “Efficacy on β-Pix MO Hemorrhage” value ([1]; inhibition of β-Pix MO-induced hemorrhage) was “+++++ (One + sign represents 20% inhibition on 1 μmol/L ATV or β-Pix MO-induced hemorrhage.)” and the EC50 [2] was 39.1 ± 8 nM. The EC50 [3] was 62.5 ± 8.3 nM, the “TC50 (Blood flow)” value (zebrafish larvae; [5]) was 746.3 nM and the “TC50/EC50 ratio (Blood flow)” value (zebrafish larvae; [5]) was “(9.2)”. For the same compound, the “TC50/EC50 ratio (Edema)” value (zebrafish larvae; [5]) was “(6.5e+010)”, the “TC50/EC50 ratio (Heart beat)” value (zebrafish larvae; [5]) was “(1.3e+011)” and the “TC50/EC50 ratio (Blood flow)” value (zebrafish larvae; drug from Sigma) was “(39.5)”. For the same compound, the “TC50/EC50 ratio (Edema)” value (zebrafish larvae; drug from Sigma) was “(87.1)”, the “TC50/EC50 ratio (Heart beat)” value (zebrafish larvae; drug from Sigma) was “(94.3)” and the “TC50 (Blood flow)” value (zebrafish larvae; [6]) was 975.3 nM. The “TC50 (Edema)” value (zebrafish larvae; [6]) was 19564 nM, the “TC50 (Heart beat)” value (zebrafish larvae; [6]) was 2328 nM and the “Safety in zebrafish embryos (EC50 compared with TC50)” value (zebrafish larvae; result in words) was “EC50 is much lower than TC50”. The “VE-cadherin transcription level (qRT-PCR)” value (VE-Cadherin (Cdh5) mRNA) was “upregulation”, the “Integrin β3 transcription level (qRT-PCR)” value (Integrin β3 (Itgb3) mRNA) was “upregulation” and the “CCM3 transcription level (qRT-PCR)” value (CCM3 (Ccm3) mRNA) was “returned to normal”. The “Hemorrhage in zebrafish treated with 1 μmol/L atorvastatin and drug” value ([4]; 500 nmol/L drug, 3 dpf) was “no hemorrhage was observed”, the “Efficacy on atorvastatin Hemorrhage” value ([4]; ATV model induced by 1 μmol/L atorvastatin, inhibition of hemorrhage) was “+++++ (One + sign represents 20% inhibition on 1 μmol/L ATV or β-Pix MO-induced hemorrhage.)” and the EC50 ([4]; read-out: EC50 (in nmol/L) on atorfvastatin model (μmol/L)) was 64 nmol/L. The EC50 ([4]; read-out: EC50 to rescue brain hemorrhage, Statin Model) was 24.7 nmol/L.
